5 molecules from ChEMBL document CHEMBL1144106, “Highly oxygenated pseudopterane and cembranolide diterpenes from the Caribbean sea feather Pseudopterogorgia bipinnata” (1999) can be followed below.

Active and inactive are the calls of the source. The rule behind the calls is not given here.

The test system of assay [1] is Mycobacterium tuberculosis. As to the kind of experiment: Antituberculosis activity against Mycobacterium tuberculosis H37Rv at 12.5 ug/mL. It is filed as functional, organism-based.
Assay [2] concerns CCRF-CEM. As to the kind of experiment: Cytotoxicity against human CCRF-CEM cells. Type of assay: functional.

For `C=C(C)[C@@H]1C[C@H]2O[C@](O)(C/C(C)=C\C(=O)/C=C(/C)C[C@@H]3OC(=O)[C@]24O[C@@H]34)[C@H]1O`, the result in assay [1] was inactive.

As for `C=C(C)[C@H]1C2=CC(C)=C(O2)[C@@H](O)[C@H](C(=C)C)CCC2=C[C@H]1OC2=O`, the result in assay [1] was inactive.

Take `C=C(C)[C@@H]1CCC2=C[C@H](C/C(C)=C\C3=CC(C)=C(O3)[C@H]1O)OC2=O`: the outcome in assay [1] was inactive.

In the case of `C=C(C)[C@H]1C(=O)[C@H]2O[C@@]2(C)C(=O)[C@@H](O)[C@H](C(=C)C)CCC2=C[C@H]1OC2=O`, the outcome in assay [1] was inactive.

`C=C(C(=O)OC)[C@@H]1C[C@@H](OC(C)=O)C2=C[C@H](C[C@@]3(C)O[C@@H]3C3=CC(C)=C(O3)[C@H]1OC(C)=O)OC2=O` [BIPINNATIN I]: the GI50 in assay [2] is 42.7 nM.

The term GI50 denotes the concentration that inhibits growth by half.
